Data reported in patent US20250164396A1, “METHOD FOR VISUALIZING DENATURED STATE OR AGGREGATED STATE OF PROTEIN” (TOHOKU UNIVERSITY, priority 2022, published 2025).

Key:
[1] = molecular target: T1, α-Synuclein fibril (Homo sapiens, UniProt P37840); assay: Quantification of aggregated state of α-synuclein fibril by probe fluorescence; conditions: 500 nM fibril, 37° C.; FIG. 3
T1 construct: purchased Cosmo Bio Co., Ltd. SYN03
Method: α-Synuclein fibril (Cosmo Bio Co., Ltd., SYN03) was diluted with 10 mM MES buffer (pH: 7.4) to prepare a 500 nM solution. The solution was dispensed in 50 μL portions in a 96-well half well black plate (Greiner, 675086). […] The fluorescence (using filters for Ex: […]) was measured in a plate reader (Teccan, Infinite 200 Pro F PLEX) under constant temperature conditions at 37° C. with plate shaking at 1 second per minute. The ONBD compounds used were three types: iPrONBD and octylONBD described above, as well as PEGONBD shown below.

[2] = system: HSP90; assay: SDS-PAGE fluorescence detection of denatured HSP90 in HeLa cell lysate, with or without geldanamycin; assay type: binding; conditions: probe 1 mM, geldanamycin 50 μM, each temperature for 5 minutes, pellet fraction; FIG. 16
Method: HeLa cells were scraped with a scraper and washed three times with ice-cold PBS, and a protease inhibitor cocktail (Nacalai, 25955-24) was resuspended in ice-cold M-PER buffer (Thermo Fisher Scientific, 78503) and allowed to stand on ice for 10 minutes. After centrifugation at 20,000×g for 20 minutes at 4° C., the supernatant was separated from the cell lysate. The protein concentration was determined by using the BCA method. To the supernatant (2 mg/ml), the same amount of geldanamycin (TCI, […]; final concentration: 50 μM) and DMSO were added, followed by treatment at room temperature for 10 minutes. […] A stock solution (DMSO solution) of 100 mM ONBD was added to the sample to a final concentration of 1 mM and allowed to stand at 37° C. for 30 minutes, and the solution was then transferred to a PCR tube. The PCR tube was heated using a thermal cycler (MiniAmp Plus) at each temperature for 5 minutes and then allowed to stand at room temperature. The sample was centrifuged at 20,000×g for 15 minutes at 4° C. In 1D SDS-PAGE (Bio-Rad, 4-10% acrylamide gel) of the pellet fraction, SDS-PAGE was performed while mixing with 1×SDS sample buffer and heating for 5 minutes at 95° C. Using various probes, SDS-PAGE was performed in the same manner as in Example 17 under heating conditions of 45° C. for 5 minutes (FIG. 17). […]

[3] = molecular target: T2, Bovine carbonic anhydrase (Bos taurus, UniProt P00921); assay: Fluorescence response of ONBD probes to heat denaturation of carbonic anhydrase; conditions: 1 mM ONBD compound; heated from 25° C. by 5° C. every 180 seconds; FIG. 1
T2 construct: purchased Aldrich C3934
T2 sequence (P00921 whole entry): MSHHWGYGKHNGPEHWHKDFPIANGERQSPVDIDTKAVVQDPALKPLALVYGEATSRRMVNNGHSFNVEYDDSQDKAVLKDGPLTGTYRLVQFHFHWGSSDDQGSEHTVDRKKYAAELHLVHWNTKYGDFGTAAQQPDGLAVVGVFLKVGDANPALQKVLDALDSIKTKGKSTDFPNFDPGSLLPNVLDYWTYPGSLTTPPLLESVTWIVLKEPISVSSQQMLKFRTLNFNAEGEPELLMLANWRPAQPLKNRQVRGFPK
Method: The PCR tube was heated with a protocol to increase the temperature by 5° C. every 180 seconds from 25° C. using a real-time PCR system (Takara Bio Inc., Thermal Cycler Dice, TP800). The fluorescence (FAM mode for ONBD compounds) was measured at the last 15 seconds of each step. Sypro Orange (Invitrogen S6650, 5000× concentration in DMSO) of the comparison target was added to a final concentration of 10×, the same operation was carried out, and the fluorescence was measured in ROX mode. The ONBD compounds used were the following five types: MeONBD, iPrONBD, nBuONBD, iBuONBD, and octylONBD.

[4] = system: HSP90; assay: Two-dimensional electrophoresis of probe-labelled HeLa lysate, denatured HSP90 with or without geldanamycin; assay type: binding; conditions: probe 1 mM, geldanamycin 50 μM, 45° C. for 5 minutes, total protein; FIG. 18
Method: HeLa cells were scraped with a scraper and washed three times with ice-cold PBS, and a protease inhibitor cocktail (Nacalai, 25955-24) was resuspended in ice-cold M-PER buffer (Thermo Fisher Scientific, 78503) and allowed to stand on ice for 10 minutes. After centrifugation at 20,000×g for 20 minutes at 4° C., the supernatant was separated from the cell lysate. The protein concentration was determined by using the BCA method. To the supernatant (2 mg/ml), the same amount of geldanamycin (TCI, […]; final concentration: 50 μM) and DMSO were added, followed by treatment at room temperature for 10 minutes. […] A stock solution (DMSO solution) of 100 mM iPrONBD was added to the sample to a final concentration of 1 mM and allowed to stand at 37° C. for 30 minutes, and the solution was then transferred to a PCR tube. The PCR tube was heated using a thermal cycler (MiniAmp Plus) at 45° C. for 5 minutes and then allowed to stand at room temperature. A sample was prepared according to the protocol of the ReadyPrep 2-D cleanup kit (Bio-Rad), and the final pellets obtained were dissolved in 15 μL of swelling buffer (containing ampolyte, pH: 3-10) included with the Auto2D Glycine Type Reagent Kit, followed by two-dimensional electrophoresis (FIG. 18).

[5] = molecular target: T3, bovine carbonic anhydrase (CAII) (Bos taurus, UniProt P00921); assay: Detection of heat-denatured CAII in HEK293FT cell disruption solution by two-dimensional electrophoresis, with or without ligand; assay type: binding
T3 construct: purchased Aldrich C3934
T3 sequence (P00921 whole entry): as above
Method: Thereafter, centrifugation was performed at 14,000×g for 10 minutes, and the supernatant was collected. […] The PCR tube was heated in a thermal cycler (Applied Biosystems, Mini Amp Plus) at 65° C. for 5 minutes and then allowed to stand at room temperature. The subsequent protocol to prepare two-dimensional electrophoresis samples was performed in the following two ways.
(Protocol to collect all proteins) A sample was prepared according to the protocol of the ReadyPrep 2-D cleanup kit (Bio-Rad), and the final pellets obtained were dissolved in 15 μL of swelling buffer (containing ampolyte, pH: 3-10) included with the Auto2D Glycine Type Reagent Kit.
(Protocol to collect pellets) The heated sample was centrifuged (at 20,000×g for 20 minutes), the supernatant was discarded, and the remaining pellets were dissolved in 15 μL of swelling buffer (containing ampolyte, pH: 3-10) included with the Auto2D Glycine Type Reagent Kit.
Two-dimensional electrophoresis was performed according to the long-term protocol of Auto 2D Plus (Merck), and fluorescence images of the resulting gel were obtained using a fluorescence imager (Vilver Lourmat, Fusion Solo S). […] The ONBD compound used was iPrONBD described above.

SMILES: CCCCCCCCOc1ccc([N+](=O)[O-])c2nonc12 [octylONBD]
- increase in fluorescence intensity over time in the presence of α-synuclein fibril [1]: the increase in the fluorescence intensity was significant

SMILES: CC(C)Oc1ccc([N+](=O)[O-])c2nonc12 [iPrONBD]
- visualization of ligand-induced heat denaturation resistance of HSP90 by probe fluorescence [2]: it was possible to visualize the acquisition of target heat denaturation resistance by ligand addition
- increase in the fluorescence intensity on heating [3]: the increase in the fluorescence intensity was significant
- visualization of ligand-induced change in heat denaturation resistance of HSP90 by probe fluorescence [4]: it was possible to visualize changes in the heat denaturation resistance of the target HSP90 by ligand addition

SMILES: O=[N+]([O-])c1ccc(Br)c2nonc12 [Br-NBD]
- suitability as probe under the denaturation conditions ([5]; 65° C., 5 minutes): appropriate probe
- reduction in the fluorescence intensity of CA by brinzolamide, comparison of probes ([5]; iPrONBD versus BrNDB, FIG. 15): the reduction in the fluorescence intensity of CA was more significant
